Test results taken from patent US9990464B1, “Label-free biomolecular interaction analysis using a rapid analyte dispersion injection method” (SENSIQ TECHNOLOGIES, INC., priority 2012, dated 2018).

Assay: apparent (effective) diffusion coefficient from internal standard-based calibration of the dispersion model
Assay type: physicochemical
Details: coiled tube, 50 μL/min, 25° C.; sucrose internal standard and Equation 1 calibration by Mr
Experimental: In one example, the rapid dispersion injection method is performed in a biosensor comprising a flow channel conduit that is in fluid connection with a flow cell conduit downstream from the analyte sample injection point. The flow channel conduit is tightly coiled around a vertically-oriented support and is preferably filled with a carrier fluid free of analyte prior to the analyte sample injection. Although it is preferred to use a vertically-oriented coil, it is not essential and other configurations are possible. The flow cell conduit houses at least two sensing regions, a first sensing region having one or more ligands immobilized on its surface and a second sensing region free of ligand. A first fluid sample comprising a reference material (e.g. sucrose) of sufficient molecular weight and concentration to elicit a bulk refractive index response is injected into the flow channel conduit under conditions sufficient to cause the reference material to undergo a dispersion event in route to the flow cell thereby producing a concentration gradient. […] The bulk refractive index response of the reference material is recorded at the second sensing surface as the first fluid sample flows continuously through the flow cell thereby generating a standard curve. The standard curve provides an internal standard which acts as a witness to the particular injection conditions of that assay. The standard curve is then fitted to the dispersion model (Equations 2 and 3 described below) to calculate a reference diffusion coefficient. […]
In brief, the universal calibration function was determined by measuring the bulk refractive index response of eight different compounds of varying molecular (Mr) under twenty-seven experimental dispersion conditions. […] An apparent diffusion coefficient (D′) was obtained for the eight compounds by fitting the dispersion model defined by Equations 2 and 3 (set forth below) to each measured bulk refractive index response curve. […]

| Dapp (apparent / effective diffusion coefficient) | Compound |
| --- | --- |
| 9.67E−10 m^2s^−1 | CC(=O)Nc1nnc(S(N)(=O)=O)s1 [Acetazolamide, acetazolamide] |
| 1.01E−09 m^2s^−1 | NS(=O)(=O)c1ccc(C(=O)O)cc1 [CBS, 4-carboxybenzenesulfonamide] |
| 8.29E−10 m^2s^−1 | NS(=O)(=O)c1cc(C(=O)O)c(NCc2ccco2)cc1Cl [Furosemide, furosemide] |
